Where two headings read alike, the source gives them in different places.
Legend:
[1] = tested on: RPEMYC^H2B-GFP cells; experiment: Mechanism-informed phenotypic screening assay (mitotic arrest, polyploidy; GE IN-Cell Analyzer 2000); type: cell-based; conditions: 20 nM to 20 μM, 24, 48 or 72 hours, read-out: Mitotic Arrest (≥5%)
[2] = tested on: RPEMYC^H2B-GFP cells; experiment: as above; type: cell-based; conditions: 20 nM to 20 μM, 24, 48 or 72 hours; for minimal effective concentration: read-out: Min. Effective conc. for polyploidy (≥5%)
Experimental: We have Previously Developed a Mechanism-Informed Phenotypic Screening Assay to identify novel antimitotic agents (Li et al. 2019). Equipped with a prior understanding of the versatile functions of the chromosomal passenger protein (CPP) complex in orchestrating karyokinesis and cytokinesis, the screening assay is to score for phenotypes typically seen when the CPP complex is disabled. Specifically, the parameters for a positive hit are a temporary elevation of mitotic index (MI) at 24 hours of drug treatment and an accumulation of polyploid cells at 48 hours of drug treatment, indicative of mitotic arrest and cytokinetic failure respectively. These parameters exclude compounds that elicit only a prolonged arrest of cells in mitosis, a phenotype typically provoked by spindle toxins. The screening procedure is briefly summarized here. RPEMYC^H2B-GFP cells engineered to express a Histone 2B-EGFP fusion protein were passaged as batches of 96-well plates, 18-24 hours before exposure to the chemical compounds of the present disclosure at concentrations from 20 nM to 20 μM. At 24, 48 or 72 hours after initiation of treatment, cells were analyzed for either an arrest in mitosis or a change in DNA content by GE IN-Cell Analyzer 2000. As set forth in table 2 below, a value of greater than or equal to […] and less than or equal to 1.0 μM is marked e “A”; a value greater than […] and less than or equal to 10.0 μM is marked “B”; a value greater than 10.0 μM and less than or equal to 30.0 μM is marked “C”; and a value greater than 30.0 μM is marked “D.”

Which results are given for COc1cc(Oc2ncccc2-c2ccncc2)cc(C(=O)N(C)C)c1 [Compound 5, 3-([3,4′-bipyridin]-2-yloxy)-5-methoxy-N,N-dimethylbenzamide]?
minimal effective concentration [1]: 0.001 to 10 µM; minimal effective concentration [2]: 0.001 to 10 µM

How did the minimal effective concentration [1] turn out when CCOc1cc(Oc2ncccc2-c2ccncc2)cc(C(=O)NC)c1 [Compound 6, 3-([3,4′-bipyridin]-2-yloxy)-5-ethoxy-N-methylbenzamide] was run?
The minimal effective concentration was 1 µM.

What about the minimal effective concentration [2] of the same compound?
Its minimal effective concentration is 1 µM.

For COc1cc(Oc2ncccc2-c2ccncc2)cc(-c2nc(C)no2)c1 [Compound 11, 5-(3-([3,4′-bipyridin]-2-yloxy)-5-methoxyphenyl)-3-methyl-1,2,4-oxadiazole], which minimal effective concentration [1] is on record?
Its minimal effective concentration is 1 µM.

And the minimal effective concentration [2]?
Its minimal effective concentration is 1 µM.

For COc1cc(OC)cc(Oc2nccnc2-c2ccncc2)c1 [Compound 15, 2-(3,5-dimethoxyphenoxy)-3-(pyridin-4-yl)pyrazine], which minimal effective concentration [1] is on record?
Its minimal effective concentration is 1 µM.

What about the minimal effective concentration [2] of the same compound?
Its minimal effective concentration is 1 µM.

How did the minimal effective concentration [1] turn out when CNC(=O)c1cc(OC)cc(Oc2nccnc2-c2ccncc2)c1 [Compound 18, 3-methoxy-N-methyl-5-((3-(pyridin-4-yl)pyrazin-2-yl)oxy)benzamide] was run?
Its minimal effective concentration is 1 µM.

What about the minimal effective concentration [2] of the same compound?
The minimal effective concentration was 1 µM.

Which results are given for Cc1noc(-c2cc(Oc3ncccc3-c3ccnc(N)n3)cc(-c3nc(C)no3)c2)n1 [Compound 22, 4-(2-(3,5-bis(3-methyl-1,2,4-oxadiazol-5-yl)phenoxy)pyridin-3-yl)pyrimidin-2-amine]?
minimal effective concentration [1]: > 30 µM; minimal effective concentration [2]: > 30 µM

With COc1cc(Oc2ncccc2-c2ccnc(N)n2)cc(C(=O)O)c1 [Compound 24, 3-((3-(2-aminopyrimidin-4-yl)pyridin-2-yl)oxy)-5-methoxybenzoic acid] as the compound, how does the minimal effective concentration [1] read?
The minimal effective concentration was > 30 µM.

And the minimal effective concentration [2]?
Its minimal effective concentration is > 30 µM.

How did the minimal effective concentration [1] turn out when CNC(=O)c1cc(OC)cc(Oc2ncccc2-c2ccnc(N)n2)c1 [Compound 25, 3-((3-(2-aminopyrimidin-4-yl)pyridin-2-yl)oxy)-5-methoxy-N-methylbenzamide] was run?
Its minimal effective concentration is 1 µM.

And the minimal effective concentration [2]?
Its minimal effective concentration is 1 µM.

COc1cc(OC)cc(Oc2ncccc2-c2ccnc(Cl)c2)c1 [Compound 44, 2′-chloro-2-(3,5-dimethoxyphenoxy)-3,4′-bipyridine] was tested. Which minimal effective concentration [1] did it give?
The minimal effective concentration was 1 µM.

And the minimal effective concentration [2]?
Its minimal effective concentration is 1 µM.

For COc1cc(OC)cc(Oc2ncccc2-c2cccnc2)c1 [Compound 47, 2-(3,5-dimethoxyphenoxy)-3,3′-bipyridine], which minimal effective concentration [1] is on record?
Its minimal effective concentration is 1 µM.

And the minimal effective concentration [2]?
The minimal effective concentration was 1 µM.

With COc1cc(OC)cc(Oc2nccnc2-c2cccnc2)c1 [Compound 50] as the compound, how does the minimal effective concentration [1] read?
Its minimal effective concentration is 1 µM.

And the minimal effective concentration [2]?
Its minimal effective concentration is 1 µM.

With COc1cc(OC)cc(Oc2ncccc2-c2ccccc2)c1 [Compound 55, 2-(3,5-dimethoxyphenoxy)-3-phenylpyridine] as the compound, how does the minimal effective concentration [1] read?
The minimal effective concentration was 0.001 to 10 µM.

And the minimal effective concentration [2]?
The minimal effective concentration was 0.001 to 10 µM.

With COC(=O)c1cc(Oc2ncccc2-c2ccccc2)cc(C(=O)OC)c1 [Compound 56, dimethyl 5-((3-phenylpyridin-2-yl)oxy)isophthalate] as the compound, how does the minimal effective concentration [1] read?
The minimal effective concentration was 1 µM.

And the minimal effective concentration [2]?
Its minimal effective concentration is 1 µM.

Which results are given for COc1cc(OC)cc(Oc2nccnc2-c2ccccc2)c1 [Compound 57, 2-(3,5-dimethoxyphenoxy)-3-phenylpyrazine]?
minimal effective concentration [1]: 0.001 to 10 µM; minimal effective concentration [2]: 0.001 to 10 µM

With COc1cc(OC)cc(Oc2ncccc2-c2cc(OC)cc(OC)c2)c1 [Compound 58, 2-(3,5-dimethoxyphenoxy)-3-(3,5-dimethoxyphenyl)pyridine] as the compound, how does the minimal effective concentration [1] read?
Its minimal effective concentration is 1 µM.

What about the minimal effective concentration [2] of the same compound?
The minimal effective concentration was 1 µM.

With COc1cc(OC)cc(Oc2nccnc2-c2cc(OC)cc(OC)c2)c1 [Compound 59, 2-(3,5-dimethoxyphenoxy)-3-(3,5-dimethoxyphenyl)pyrazine] as the compound, how does the minimal effective concentration [1] read?
Its minimal effective concentration is 0.001 to 10 µM.

What about the minimal effective concentration [2] of the same compound?
Its minimal effective concentration is 0.001 to 10 µM.

What does the source list for COc1cc(OC)cc(Oc2ncccc2-c2cc(OC)ncn2)c1 [Compound 60, 4-(2-(3,5-dimethoxyphenoxy)pyridin-3-yl)-6-methoxypyrimidine]?
minimal effective concentration [1]: 1 µM; minimal effective concentration [2]: 1 µM

How did the minimal effective concentration [1] turn out when COc1cc(OC)cc(Oc2ncccc2-c2ccnc(N)c2)c1 [Compound 61, 2-(3,5-dimethoxyphenoxy)-[3,4′-bipyridin]-2′-amine] was run?
Its minimal effective concentration is 1 µM.

And the minimal effective concentration [2]?
Its minimal effective concentration is 1 µM.

COc1cc(OC)cc(Oc2ncccc2-c2ccnc(SC)n2)c1 [Compound 62, 4-(2-(3,5-dimethoxyphenoxy)pyridin-3-yl)-2-(methylthio)pyrimidine] was tested. Which minimal effective concentration [1] did it give?
Its minimal effective concentration is 0.001 to 10 µM.

And the minimal effective concentration [2]?
Its minimal effective concentration is 0.001 to 10 µM.

What does the source list for CNc1cc(-c2cccnc2Oc2cc(OC)cc(OC)c2)ncn1 [Compound 64, 6-(2-(3,5-dimethoxyphenoxy)pyridin-3-yl)-N-methylpyrimidin-4-amine]?
minimal effective concentration [1]: 0.001 to 10 µM; minimal effective concentration [2]: 0.001 to 10 µM

What does the source list for COc1cc(OC)cc(Oc2ncccc2-c2ccncc2N)c1 [Compound 65, 2-(3,5-dimethoxyphenoxy)-[3,4′-bipyridin]-3′-amine]?
minimal effective concentration [1]: 0.001 to 10 µM; minimal effective concentration [2]: 0.001 to 10 µM

How did the minimal effective concentration [1] turn out when CNC(=O)c1cc(OC)cc(Oc2ncccc2-c2ccnc(C(F)(F)F)c2)c1 [Compound 66, 3-methoxy-N-methyl-5-((2′-(trifluoromethyl)-[3,4′-bipyridin]-2-yl)oxy)benzamide] was run?
The minimal effective concentration was 1 µM.

And the minimal effective concentration [2]?
The minimal effective concentration was 1 µM.

What does the source list for CCOc1cc(Oc2ncccc2-c2ccnc(C(F)(F)F)c2)cc(C(=O)NC)c1 [Compound 67, 3-ethoxy-N-methyl-5-((2′-(trifluoromethyl)-[3,4′-bipyridin]-2-yl)oxy)benzamide]?
minimal effective concentration [1]: 0.001 to 10 µM; minimal effective concentration [2]: 0.001 to 10 µM

With COc1cc(OC)cc(Oc2cncc(-c3ccccc3)n2)c1 [Compound 81, 2-(3,5-dimethoxyphenoxy)-6-phenylpyrazine] as the compound, how does the minimal effective concentration [1] read?
The minimal effective concentration was 0.001 to 10 µM.

What about the minimal effective concentration [2] of the same compound?
The minimal effective concentration was 0.001 to 10 µM.

Which results are given for COc1cc(OC)cc(Oc2cncc(-c3cccnc3)n2)c1 [Compound 82, 2-(3,5-dimethoxyphenoxy)-6-(pyridin-3-yl)pyrazine]?
minimal effective concentration [1]: 0.001 to 10 µM; minimal effective concentration [2]: 0.001 to 10 µM

How did the minimal effective concentration [1] turn out when COc1cc(OC)cc(Oc2cncc(-c3cccc(F)c3)n2)c1 [Compound 83, 2-(3,5-dimethoxyphenoxy)-6-(3-fluorophenyl)pyrazine] was run?
Its minimal effective concentration is > 30 µM.

What about the minimal effective concentration [2] of the same compound?
The minimal effective concentration was > 30 µM.

How did the minimal effective concentration [1] turn out when COc1cc(OC)cc(Oc2ncccc2-c2ccnc(Cl)n2)c1 [Compound 84, 2-chloro-4-(2-(3,5-dimethoxyphenoxy)pyridin-3-yl)pyrimidine] was run?
The minimal effective concentration was 10 to 30 µM.

And the minimal effective concentration [2]?
The minimal effective concentration was > 30 µM.

Which results are given for CCOCCOc1cc(-c2cccnc2Oc2cc(OC)cc(C(=O)NC)c2)ccn1 [Compound 85, 3-((2′-(2-ethoxyethoxy)-[3,4′-bipyridin]-2-yl)oxy)-5-methoxy-N-methylbenzamide]?
minimal effective concentration [1]: 1 µM; minimal effective concentration [2]: 1 µM

For CCOCCOc1cc(-c2cccnc2Oc2cc(OC)cc(-n3cccn3)c2)ccn1 [Compound 86, 2′-(2-ethoxyethoxy)-2-(3-methoxy-5-(1H-pyrazol-1-yl)phenoxy)-3,4′-bipyridine], which minimal effective concentration [1] is on record?
Its minimal effective concentration is 1 µM.

What about the minimal effective concentration [2] of the same compound?
The minimal effective concentration was 1 µM.

What does the source list for CCOCCOc1cc(-c2cccnc2Oc2cc(NC(C)=O)cc(OC)c2)ccn1 [Compound 87, N-(3-((2′-(2-ethoxyethoxy)-[3,4′-bipyridin]-2-yl)oxy)-5-methoxyphenyl)acetamide]?
minimal effective concentration [1]: 1 µM; minimal effective concentration [2]: 1 µM

Which results are given for CNC(=O)c1cc(Oc2ncccc2-c2ccnc(C)c2)cc(-n2cccn2)c1 [Compound 88, N-methyl-3-((2′-methyl-[3,4′-bipyridin]-2-yl)oxy)-5-(1H-pyrazol-1-yl)benzamide]?
minimal effective concentration [1]: 1 µM; minimal effective concentration [2]: 1 µM

What does the source list for CNC(=O)c1cc(Oc2ncccc2-c2ccnc(C)c2)cc(-c2cnn(C)c2)c1 [Compound 89, N-methyl-3-(1-methyl-1H-pyrazol-4-yl)-5-((2′-methyl-[3,4′-bipyridin]-2-yl)oxy)benzamide]?
minimal effective concentration [1]: 1 µM; minimal effective concentration [2]: 1 µM

Which minimal effective concentration [1] does the source give for CNC(=O)c1cc(Oc2ncccc2-c2ccncc2)cc(-c2cnn(C)c2)c1 [Compound 90, 3-([3,4′-bipyridin]-2-yloxy)-N-methyl-5-(1-methyl-1H-pyrazol-4-yl)benzamide] here?
The minimal effective concentration was 1 µM.

What about the minimal effective concentration [2] of the same compound?
Its minimal effective concentration is 1 µM.

With CNC(=O)c1cc(OC)cc(Oc2ncccc2-c2cncnc2)c1 [Compound 91, 3-methoxy-N-methyl-5-((3-(pyrimidin-5-yl)pyridin-2-yl)oxy)benzamide] as the compound, how does the minimal effective concentration [1] read?
The minimal effective concentration was 1 µM.

And the minimal effective concentration [2]?
Its minimal effective concentration is 1 µM.

For CNC(=O)c1cc(OC)cc(Oc2ncccc2-c2cccc(F)c2)c1 [Compound 92, 3-((3-(3-fluorophenyl)pyridin-2-yl)oxy)-5-methoxy-N-methylbenzamide], which minimal effective concentration [1] is on record?
The minimal effective concentration was 1 µM.

What about the minimal effective concentration [2] of the same compound?
Its minimal effective concentration is 1 µM.

What does the source list for COc1cc(NC(C)=O)cc(Oc2ncccc2-c2ncccn2)c1 [Compound 93, N-(3-methoxy-5-((3-(pyrimidin-2-yl)pyridin-2-yl)oxy)phenyl)acetamide]?
Min. Effective conc. for polyploidy (≥5%) [2]: inactive; Mitotic Arrest (≥5%) [2]: inactive

From patent US20240262803A1, “COMPOUNDS, COMPOSITIONS AND METHODS OF TREATING DISORDERS” (Chungdu Anticancer Bioscience Ltd, priority 2021, published 2024)
